Test results as given in US20040005537A1, “Method of identifying toxic agents using differential gene expression” (priority 2000, published 2004).

System: rat heart tissue
Experiment: GENECALLING differential gene expression analysis after dosing of serotonin modulating agents
Format: in vivo, Sprague Dawley rats
Experimental: Control animals received sterile water or canola oil. The animals were sacrificed 24 hours following the last dose. Liver tissue was dissected from the animals, and total RNA was recovered from the dissected tissue. cDNA was prepared and the resulting samples were processed through using GENECALLING™ differential expression analysis as described in U.S. Pat. No. 5,871,697 and in Shimkets et al., Nature Biotechnology 17:798-803 (1999). The contents of these patents and publications are incorporated herein by reference in their entirety.
Thousands of gene fragments were initially found to be differentially expressed in rat heart tissue in response to serotonin modulating agents in. Genes fragments whose expression levels were modulated greater than ±1.5-fold were selected for further analysis.
Column 6 of Table 1, entitled “Function”, lists the type of classification assigned for the protein, based on its function. The 210 single nucleic acid sequences identified herein, are referred to herein as CARDIOTOX 1-210.

## CN1C[C@H](C(=O)N[C@]2(C)O[C@@]3(O)[C@@H]4CCCN4C(=O)[C@H](Cc4ccccc4)N3C2=O)C[C@@H]2c3cccc4[nH]cc(c34)C[C@H]21 [dihydroergotamine]
CARDIOTOX 1
  Effects on Transcription Level: Novel gene fragment, 524 bp, 86% SI to mouse F-box protein FBX6b [AF176526]: +1.3 fold
CARDIOTOX 2
  Effects on Transcription Level: Novel gene fragment, 306 bp, 91% SI to mouse low density lipoprotein receptor related protein 4 [AB013874]: −1.4 fold
CARDIOTOX 3
  Effects on Transcription Level: Novel gene fragment, 540 bp, 97% SI to mouse skeletal muscle alpha-actin [X03766]: +1.2 fold
CARDIOTOX 4
  Effects on Transcription Level: Novel gene fragment, 80 bp: −1.4 fold
CARDIOTOX 5
  Effects on Transcription Level: Novel gene fragment, 957 bp, 99% SI to kidney injury associated moleculer HW036 [V80591]: −1.4 fold
CARDIOTOX 6
  Effects on Transcription Level: Novel gene fragment, 282 bp, 85% SI to human KIAA1515 protein [AB040948]: −1.2 fold
CARDIOTOX 7
  Effects on Transcription Level: Novel gene fragment, 405 bp, 88% SI to human 2-oxoglutarate dehydrogenase [D10523]: +1.3 fold
CARDIOTOX 8, GenBank AB010743
  Effects on Transcription Level: UCP2: +1.0 fold
CARDIOTOX 9, GenBank J03753
  Effects on Transcription Level: Plasma membrane Ca2 + ATPase-isoform 1: −1.4 fold
CARDIOTOX 10
  Effects on Transcription Level: Novel gene fragment, 242 bp, 97% SI to mouse HSP86 heat-shock protein [X16857]: +1.0 fold
CARDIOTOX 11
  Effects on Transcription Level: Novel gene fragment, 280 bp, 65% SI to human TRF1-interacting, ankyrin-related ADP-ribose polymerase [AF082556]: +1.3 fold
CARDIOTOX 12
  Effects on Transcription Level: Novel gene fragment, 348 bp, 88% SI to mouse Sec61 protein complex gamma subunit [U11027]: +1.4 fold
CARDIOTOX 13
  Effects on Transcription Level: Novel gene fragment 553 bp, 93% SI to mouse Sid329 [AB024984]: +1.2 fold
CARDIOTOX 14, GenBank AB020759
  Effects on Transcription Level: Kruppel-like transcription factor: +1.2 fold
CARDIOTOX 15, GenBank X62166
  Effects on Transcription Level: Ribosomal protein L3: +1.4 fold
CARDIOTOX 16, GenBank S78556
  Effects on Transcription Level: Glucose-regulated protein (GRP) 75: +1.2 fold
CARDIOTOX 17, GenBank M14050
  Effects on Transcription Level: Immunoglobulin heavy chain binding protein (BiP): +1.2 fold
CARDIOTOX 18, GenBank X56541
  Effects on Transcription Level: Membrane-spannining proteoglycan NG2: −1.4 fold
CARDIOTOX 19
  Effects on Transcription Level: Novel gene fragment, 1294 bp, 96% SI to mouse Sui 1 (elF) homolog [AF129888]: +1.1 fold
CARDIOTOX 20
  Effects on Transcription Level: Novel gene fragment, 723 bp, 85% SI to human translation initiation factor elF3 p40 subunit [U54559]: +1.2 fold
CARDIOTOX 21
  Effects on Transcription Level: Novel gene fragment, 1324 bp, 76% SI to human flavoprotein subunit of complex II [D30648]: +1.3 fold
CARDIOTOX 22
  Effects on Transcription Level: Novel gene fragment, 852 bp, 81% SI to human vacuolar proton-ATPase subunit M9.2 [Y15286]: +1.4 fold
CARDIOTOX 23
  Effects on Transcription Level: Novel gene fragment, 178 bp, 91% SI to mouse myosin light chain-2 isoform MLC-2a [S70785]: +1.2 fold
CARDIOTOX 24
  Effects on Transcription Level: Novel gene fragment, 167 bp, 90% SI to mouse Rab20 [X80332]: +1.2 fold
CARDIOTOX 25
  Effects on Transcription Level: Novel gene fragment, 1070 bp, 80% SI to human muscle-specific protein [AF249873]: +1.2 fold
CARDIOTOX 26
  Effects on Transcription Level: Novel gene fragment, 1143 bp, 82% SI to human sarcoma amplified sequence (SAS) [U01160]: +1.4 fold
CARDIOTOX 27
  Effects on Transcription Level: Novel gene fragment, 74 bp,75% SI to human secreted protein [X30160] (from patent database)/[X97578] (from patent database)/potential cytokine): +1.4 fold
CARDIOTOX 28
  Effects on Transcription Level: Novel gene fragment, 408 bp, 90% SI to human CGI-07 protein [AF132941]: +1.2 fold
CARDIOTOX 29
  Effects on Transcription Level: Novel gene fragment, 618 bp, 95% SI to rat progression related cDNA, ZNPE-120 3′ end partial sequence [patent database X90805]: +1.0 fold
CARDIOTOX 30
  Effects on Transcription Level: Novel gene fragment, 717 bp: +1.2 fold
CARDIOTOX 31
  Effects on Transcription Level: Novel gene fragment, 546 bp: −1.0 fold
CARDIOTOX 32
  Effects on Transcription Level: Novel gene fragment, 920 bp, 91% SI to human HSPC061 [AF161546]: +1.3 fold
CARDIOTOX 33
  Effects on Transcription Level: Novel gene fragment, 203 bp, 92% SI to rabbit sarcoplasmic reticulum glycoprotein [J04480]: −1.1 fold
CARDIOTOX 34
  Effects on Transcription Level: Novel gene fragment, 178 bp, 68% SI to mouse IgG receptor (beta-Fc-gamma-RII)[M63159]: +1.2 fold
CARDIOTOX 35, GenBank X87107
  Effects on Transcription Level: Ribosomal protein L6: +1.4 fold
CARDIOTOX 36, GenBank U31935
  Effects on Transcription Level: CAP2 protein (adenylyl cyclase-associated protein 2): +1.2 fold
CARDIOTOX 37, GenBank M63837
  Effects on Transcription Level: Alpha-platelet-derived growth factor receptor: −1.0 fold
CARDIOTOX 38, GenBank X74402
  Effects on Transcription Level: Rab GD1 alpha protein: −1.1 fold
CARDIOTOX 39, GenBank Y08355
  Effects on Transcription Level: PKC-zeta-interacting protein: +1.2 fold
CARDIOTOX 40, GenBank X65198
  Effects on Transcription Level: ERK or MAP kinase: +1.4 fold
CARDIOTOX 41, GenBank U37486
  Effects on Transcription Level: Peroxisomal multifunctional enzyme type II: +1.2 fold
CARDIOTOX 42, GenBank D30035
  Effects on Transcription Level: HBP23 (heme-binding protein 23 kDa): +1.3 fold
CARDIOTOX 43, GenBank U90725
  Effects on Transcription Level: Caveolae-associated protein: +1.3 fold
CARDIOTOX 44, GenBank AF025506
  Effects on Transcription Level: Prenylated rab acceptor 1 (PRA1): +1.0 fold
CARDIOTOX 45
  Effects on Transcription Level: Novel gene fragment, 337 bp, 88% SI to rabbit cardiac ryanodine receptor (RyR-2)[U50465]: −2.5 fold
CARDIOTOX 46
  Effects on Transcription Level: Novel gene fragment, 81 bp, 85% SI to human titin [X90568]: −2.8 fold
CARDIOTOX 47
  Effects on Transcription Level: Novel gene fragment, 428 bp, 86% SI to human titin [X90568]: −1.7 fold
CARDIOTOX 48
  Effects on Transcription Level: Novel gene fragment, 374 bp, 88% SI to human titin [X90568]: −5.5 fold
CARDIOTOX 49
  Effects on Transcription Level: Novel gene fragment, 428 bp, 85% SI to human titin [90568]: −3.8 fold
CARDIOTOX 50
  Effects on Transcription Level: Novel gene fragment, 1216 bp, 93% SI to mouse mircotubule-associated protein (MAP) 1B protein [AF115776]: −1.5 fold
CARDIOTOX 51
  Effects on Transcription Level: Novel gene fragment, 1115 bp, 83% SI to human KIAA0549 protein [AB011121]: −1.5 fold
CARDIOTOX 52
  Effects on Transcription Level: Novel gene fragment, 153 bp: −1.7 fold
CARDIOTOX 53
  Effects on Transcription Level: Novel gene fragment, 89 bp, 93% SI to human putative glialblastoma cell differentiation-related protein (GBDR1) [AF068195]: +1.5 fold
CARDIOTOX 54, GenBank U61266
  Effects on Transcription Level: Rho-associated kinase beta: −2.6 fold
CARDIOTOX 55, GenBank D13062
  Effects on Transcription Level: Adenylate kinase 3: +1.5 fold
CARDIOTOX 56, GenBank AF049878
  Effects on Transcription Level: Amyloid beta-peptide binding protein: +1.7 fold
CARDIOTOX 57, GenBank D12771
  Effects on Transcription Level: Mitochondrial adenine nuleotide translocator: +1.8 fold
CARDIOTOX 58
  Effects on Transcription Level: Novel gene fragment, 710 bp, 94% SI to mouse chromatin structural protein homolog Supt5 hp (Supt5 h)[U88539]: +2.8 fold
CARDIOTOX 60
  Effects on Transcription Level: Novel gene fragment, 186 bp, 66% SI to human N-acetylglucosaminyltransferase 1 (GlcNAc-TI)[M55621]: −1.5 fold
CARDIOTOX 61
  Effects on Transcription Level: Novel gene fragment, 238 bp, 95% SI to mouse MAP kinase-activated protein kinase 2 [X76850]: −1.5 fold
CARDIOTOX 62
  Effects on Transcription Level: Novel gene fragment, 173 bp, 70% SI to G protein-coupled receptor kinase GRK4 [X97568]: −7.2 fold
CARDIOTOX 63
  Effects on Transcription Level: Novel gene fragment, 133 bp, 77% SI to human apoptosis related protein hSARP3 [patent database: V19114]: −2.5 fold
CARDIOTOX 64
  Effects on Transcription Level: Novel gene fragment, 477 bp, 98% SI to peroxisomal phytanoyl-CoA hydroxylase (PHYH) [AF121345]: +8.0 fold
CARDIOTOX 65
  Effects on Transcription Level: Novel gene fragment, 413 bp, 95% SI to mouse dihydrolipoamide dehydrogenase (Dld) [U73445]: +2.2 fold
CARDIOTOX 66
  Effects on Transcription Level: Novel gene fragment, 726 bp, 76% SI to human succinate dehydrogenase flavoprotein subunit (SDH) [L21936]: −3.6 fold
CARDIOTOX 67
  Effects on Transcription Level: Novel gene fragment, 440 bp, 92% SI to mouse cytochrome c oxidase Vllc [X52940]: +4.1 fold
CARDIOTOX 68
  Effects on Transcription Level: Novel gene fragment, 276 bp, 80% SI to human titin [X90568]: −6.5 fold
CARDIOTOX 69
  Effects on Transcription Level: Novel gene fragment, 149 bp, 70% SI to human titin [X90568]: +8.0 fold
CARDIOTOX 70
  Effects on Transcription Level: Novel gene fragment, 467 bp, 94% SI to mouse gelsolin [J04953]: −1.6 fold
